Experimental findings from patent publication EP2741758B1, “POLYPHENOLIC FORMULATION, ITS PREPARATION AND USE” (Uniwersytet Medyczny W Lodzi, priority 2011, dated 2013) are described below.

This series has as its system HepG2, HMEC-1, A549, Caco-2, 3T3. As to the kind of experiment: Multiparameter automated HCS cytotoxicity test "Cell health assay". The note with it: for cumulative cytotoxicity index: points over 5 cell lines; for cumulative cytotoxicity index, Total: sum over the five concentrations. In kind it is cell-based. Set-up: scale not given here. The protocol:
Thanks to the use of three fluorescent dyes (MitoTracker - Invitrogen, YO-[…], Hoechst 33 342 - Sigma), assessment of the impact of the studied extracts on the size, and morphology of the nucleus, cytoplasmic membrane integrity, and mitochondrial activity was made. Tests were performed on 96-well plates using 5 cell lines (HepG2, HMEC-1, A549, Caco-2, 3T3). The measurements were taken using automatic pipetting station JANUS by Perkin Elmer. The formulation was examined at five concentrations, measurements were taken in duplicates in 5 independent series. Based on the raw experimental data, statistical analysis of significance of observed differences in average values for three selected measurement parameters, measuring the fluorescence intensity, and dyed surface in cells, using fluorescent dyes, was made. The selected parameters illustrate: • 1. Surface of the cell nucleus (Hoechst (Sigma) • 2. Accumulation of YO-[…] dye (Invitrogen), indicating cytoplasmic membrane damage • 3. Mitochondrial potential (MitoTracker - Invitrogen) Then, the statistically significant differences for each tested concentration of each substance, which indicate morphological, and functional changes in cells, showing cytotoxic activity, were assigned with point values as shown in the diagram of assessment of the observed effects below. Differences subject to the scoring: • 1. Decrease, or increase in nucleus surface • 2. Increase in the accumulation of YO-[…] • 3. Decrease in the mitochondrial potential The following Table 13 illustrates the assigned point values given to the studied formulations in "Cell health assay" test. Table 13. Point values adopted in "Cell health assay" test. [table]

In the case of `C[C@@H]1O[C@@H](O[C@H]2[C@H](Oc3cc(O)c4c(c3)O[C@H](c3ccc(O)cc3)CC4=O)O[C@H](CO)[C@@H](O)[C@@H]2O)[C@H](O)[C@H](O)[C@H]1O` [Naringin], the “cumulative cytotoxicity index, Total” value turned out to be 1.8. For the setting “5 µg/ml”, this compound returned a cumulative cytotoxicity index of 0.0. Further, the cumulative cytotoxicity index (10 µg/ml) was found to be 0.0. The compound further came in with a cumulative cytotoxicity index (30 µg/ml) of 0.2. This compound also yielded a cumulative cytotoxicity index (40 µg/ml) of 1.4. Further, under “50 µg/ml”, the cumulative cytotoxicity index is reported as 0.2.

Consider `O=c1c(O)c(-c2ccc(O)cc2)oc2cc(O)cc(O)c12` [Kaempferol], for which the “cumulative cytotoxicity index, Total” value is reported as 27.0. The compound further showed a cumulative cytotoxicity index (5 µg/ml) of 2.6. The compound also displayed a cumulative cytotoxicity index (10 µg/ml) of 1.4. The compound further displayed a cumulative cytotoxicity index (30 µg/ml) of 8.4. Also, for the setting “40 µg/ml”, the cumulative cytotoxicity index is 8.4. Where the note is “50 µg/ml”, this compound yielded a cumulative cytotoxicity index of 6.2.
